From PubChem BioAssay AID330 (DTP/NCI, 2004) come the findings set out here.

This experiment concerns P388 leukemia ip, CD2F1 mice, survival T/C. Description: NCI In Vivo Anticancer Drug Screen. Data for tumor model P388 Leukemia (intraperitoneal) in CD2F1 (CDF1) mice. The conditions noted are these: endpoint: median survival time, higher = longer survival. An outline of the steps:
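Mice carrying the transplanted tumor received test compound or vehicle. Survival was recorded in each group, and the value is the treated-group measurement divided by that of the vehicle-treated control group.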

Setting [1] is: dose: 50.0 mg/kg/injection, schedule: Q01DX005 (ip), vehicle: saline with Tween-80.
The mark [2] stands for this setting: dose: 100.0 mg/kg/injection, schedule: Q01DX005 (ip), vehicle: saline with Tween-80.
[3] abbreviates: dose: 200.0 mg/kg/injection, schedule: Q01DX005 (ip), vehicle: saline with Tween-80.
The mark [4] stands for this setting: dose: 25.0 mg/kg/injection, schedule: Q04DX002 (ip), vehicle: saline with Tween-80.
Setting [5] is: dose: 50.0 mg/kg/injection, schedule: Q04DX002 (ip), vehicle: saline with Tween-80.
[6] abbreviates: dose: 100.0 mg/kg/injection, schedule: Q04DX002 (ip), vehicle: saline with Tween-80.
[7] abbreviates: dose: 100.0 mg/kg/injection, schedule: Q04DX003 (ip), vehicle: Klucel (hydroxypropylcellulose) (HPC).
Setting [8] is: dose: 200.0 mg/kg/injection, schedule: Q04DX003 (ip), vehicle: Klucel (hydroxypropylcellulose) (HPC).
Setting [9] is: dose: 50.0 mg/kg/injection, schedule: Q01DX009 (ip), vehicle: suspension in saline.
Where [10] appears, read: dose: 100.0 mg/kg/injection, schedule: Q01DX009 (ip), vehicle: suspension in saline.
The mark [11] stands for this setting: dose: 50.0 mg/kg/injection, schedule: Q01DX009 (ip), vehicle: saline with Tween-80.
Setting [12] is: dose: 100.0 mg/kg/injection, schedule: Q01DX009 (ip), vehicle: saline with Tween-80.
[13] abbreviates: dose: 200.0 mg/kg/injection, schedule: Q01DX009 (ip), vehicle: saline with Tween-80.

Values joined by “and” are separate entries in the source; they are usually repeats but may differ in a detail not shown here. Equal values may be shown once. Inconclusive results and toxic doses are left out.

`O=S(=O)(O)C1CC2C(c3ccccc31)N1ON2O1` (configuration not stated): the T/C by setting is: under setting [1], 102 % of control; under setting [2], 100 % of control; under setting [3], 100 % of control.

For the compound `O=C(CC(O)(C(F)(F)F)C(F)(F)F)CC(O)(C(F)(F)F)C(F)(F)F`, the T/C was 95 % of control (dose: 0.5 mg/kg/injection, schedule: Q04DX003 (ip), vehicle: saline + alcohol); 100 % of control (dose: 1.0 mg/kg/injection, schedule: Q04DX003 (ip), vehicle: saline + alcohol); 100 % of control and 95 % of control (dose: 1.25 mg/kg/injection, schedule: Q04DX003 (ip), vehicle: saline with Tween-80); 90 % of control (dose: 2.0 mg/kg/injection, schedule: Q04DX003 (ip), vehicle: saline + alcohol); 100 % of control (dose: 2.5 mg/kg/injection, schedule: Q04DX003 (ip), vehicle: saline with Tween-80); 100 % of control and 91 % of control (dose: 5.0 mg/kg/injection, schedule: Q04DX003 (ip), vehicle: saline with Tween-80).

For the compound `O=C1c2ccc([N+](=O)[O-])cc2NC(O)c2cccn21` (configuration not stated), the T/C is, setting by setting: (dose: 0.1 mg/kg/injection, schedule: Q01DX005 (ip), vehicle: water) 96 % of control; (dose: 0.2 mg/kg/injection, schedule: Q01DX005 (ip), vehicle: water) 96 % of control; (dose: 0.4 mg/kg/injection, schedule: Q01DX005 (ip), vehicle: water) 91 % of control; (dose: 0.8 mg/kg/injection, schedule: Q01DX005 (ip), vehicle: water) 96 % of control; (dose: 1.6 mg/kg/injection, schedule: Q01DX005 (ip), vehicle: water) 96 % of control; (dose: 5.0 mg/kg/injection, schedule: Q01DX005 (ip), vehicle: distilled water + Tween-80) 99 % of control. The T/C (dose: 10.0 mg/kg/injection, schedule: Q01DX005 (ip), vehicle: distilled water + Tween-80) was 95 % of control; the T/C (dose: 20.0 mg/kg/injection, schedule: Q01DX005 (ip), vehicle: distilled water + Tween-80) was 95 % of control; the T/C (dose: 40.0 mg/kg/injection, schedule: Q01DX005 (ip), vehicle: distilled water + Tween-80) was 91 % of control; the T/C (dose: 80.0 mg/kg/injection, schedule: Q01DX005 (ip), vehicle: distilled water + Tween-80) is 91 % of control.

Regarding `C/C(=N\NC(N)=Nc1ccccc1)c1ccc2c(c1)Cc1ccccc1-2`, the T/C is 103 % of control under setting [4], 94 % of control under setting [5] and 104 % of control under setting [6].

Consider `COP(=O)(OC)C(=[N+]=[N-])P(=O)(OC(C)C)OC(C)C`, for which the T/C is 99 % of control (dose: 100.0 mg/kg/injection, schedule: Q01DX001 (ip), vehicle: saline); 101 % of control (dose: 200.0 mg/kg/injection, schedule: Q01DX001 (ip), vehicle: saline); 100 % of control (dose: 400.0 mg/kg/injection, schedule: Q01DX001 (ip), vehicle: saline).

Regarding `c1ccc2c3c(ccc2c1)CC1CCCN1C3` (configuration not stated), the T/C was 100 % of control under setting [7] and 103 % of control under setting [8].

`Cc1cccc(/C=N/NC(N)=S)n1`: the T/C (dose: 15.0 mg/kg/injection, schedule: Q04DX002 (ip), vehicle: saline with Tween-80) is 105 % of control; the T/C (dose: 30.0 mg/kg/injection, schedule: Q04DX002 (ip), vehicle: saline with Tween-80) was 106 % of control; the T/C (dose: 60.0 mg/kg/injection, schedule: Q04DX002 (ip), vehicle: saline with Tween-80) was 106 % of control.

For `CCC(C)C1C(=O)O[B-](F)(F)/[N+]1=C\c1ccccc1` (configuration not stated), the T/C under setting [7] was 104 % of control and the T/C under setting [8] is 109 % of control.

Take `Fc1ccc(Nc2nnc(-c3ccc(Cl)cc3Cl)o2)cc1`: the T/C runs as follows: (dose: 12.5 mg/kg/injection, schedule: Q01DX005 (ip), vehicle: saline with Tween-80) 97 % of control; (dose: 25.0 mg/kg/injection, schedule: Q01DX005 (ip), vehicle: saline with Tween-80) 99 % of control; under setting [1], 93 % of control and 97 % of control; under setting [3], 96 % of control.

As for `NCCc1cc(=O)[nH]o1`, the T/C was 90 % of control under setting [9]; 90 % of control under setting [10]; 91 % of control (dose: 200.0 mg/kg/injection, schedule: Q01DX009 (ip), vehicle: suspension in saline).

Take `CCCCNC(=O)CCC`: the T/C is, setting by setting: under setting [11], 88 % of control; under setting [12], 94 % of control; under setting [13], 95 % of control; (dose: 400.0 mg/kg/injection, schedule: Q01DX009 (ip), vehicle: saline with Tween-80) 97 % of control.

Regarding `Cc1cc([N+](=O)[O-])c(C)cc1Cl`, the T/C is, setting by setting: (dose: 37.5 mg/kg/injection, schedule: Q04DX003 (ip), vehicle: saline sonified) 118 % of control; (dose: 75.0 mg/kg/injection, schedule: Q04DX003 (ip), vehicle: saline sonified) 100 % of control; (dose: 150.0 mg/kg/injection, schedule: Q04DX003 (ip), vehicle: saline sonified) 118 % of control.

Turning to `FC(F)(F)c1ccc(NC(=S)SCc2ccc3c(c2)OCO3)cc1`, the T/C is 98 % of control under setting [9] and 93 % of control under setting [10].

As to `Cc1ccccc1CS`, the T/C by setting is: under setting [11], 113 % of control; under setting [12], 113 % of control; under setting [13], 113 % of control.

For the compound `COc1cccc2c1C(=O)c1c(O)c3c(c(O)c1C2=O)C[C@@](O)(/C(C)=N/NC(=O)c1ccc(Cl)c(Cl)c1)C[C@@H]3OC1CC(N)C(O)C(C)O1` (some centres not stated), the T/C was 117 % of control (dose: 0.12 mg/kg/injection, schedule: Q01DX009 (ip), vehicle: water); 157 % of control (dose: 0.5 mg/kg/injection, schedule: Q01DX009 (ip), vehicle: water); 166 % of control (dose: 1.0 mg/kg/injection, schedule: Q01DX009 (ip), vehicle: water); 155 % of control and 175 % of control (dose: 2.0 mg/kg/injection, schedule: Q01DX009 (ip), vehicle: water); 163 % of control (dose: 4.0 mg/kg/injection, schedule: Q01DX009 (ip), vehicle: water); 159 % of control (dose: 5.0 mg/kg/injection, schedule: Q01DX001 (ip), vehicle: water). Moreover, the T/C was 168 % of control (dose: 10.0 mg/kg/injection, schedule: Q01DX001 (ip), vehicle: water) and 123 % of control (dose: 20.0 mg/kg/injection, schedule: Q01DX001 (ip), vehicle: water).

On to `CCOC(=O)Nc1ccc2nc(N3CCCCC3)sc2c1`, for which the T/C was 96 % of control under setting [11] and 90 % of control under setting [12].

For the compound `O=C1S/C(=C2\C(=O)N(CN3CCCCC3)c3ccc(Br)cc32)C(=O)N1CN1CCCCC1`, the T/C is 100 % of control (dose: 60.0 mg/kg/injection, schedule: Q01DX005 (ip), vehicle: Klucel (hydroxypropylcellulose) (HPC)); 101 % of control (dose: 120.0 mg/kg/injection, schedule: Q01DX005 (ip), vehicle: Klucel (hydroxypropylcellulose) (HPC)); 99 % of control (dose: 240.0 mg/kg/injection, schedule: Q01DX005 (ip), vehicle: Klucel (hydroxypropylcellulose) (HPC)).

Regarding `Fc1ccc(-c2nc3ccccn3c2N=Nc2ccccc2)cc1`, the T/C was 88 % of control under setting [1], 97 % of control under setting [2] and 94 % of control under setting [3].

As for `COc1cc([N+](=O)[O-])c(S(=O)(=O)O)cc1NS(=O)(=O)c1ccc(C)cc1`, the T/C was 110 % of control (dose: 60.0 mg/kg/injection, schedule: Q01DX005 (ip), vehicle: saline with Tween-80); 101 % of control (dose: 120.0 mg/kg/injection, schedule: Q01DX005 (ip), vehicle: saline with Tween-80); 97 % of control (dose: 240.0 mg/kg/injection, schedule: Q01DX005 (ip), vehicle: saline with Tween-80).

With `CSC(=S)/C=C1\SC=CN1C`, the T/C under setting [4] was 96 % of control, the T/C under setting [5] was 100 % of control and the T/C under setting [6] is 100 % of control.

`NS(=O)(=O)c1ccc(NC(=O)CCl)cc1`: the T/C is, setting by setting: (dose: 12.5 mg/kg/injection, schedule: Q01DX009 (ip), vehicle: Klucel (hydroxypropylcellulose) (HPC)) 110 % of control; (dose: 25.0 mg/kg/injection, schedule: Q01DX009 (ip), vehicle: Klucel (hydroxypropylcellulose) (HPC)) 108 % of control and 120 % of control; (dose: 50.0 mg/kg/injection, schedule: Q01DX009 (ip), vehicle: Klucel (hydroxypropylcellulose) (HPC)) 110 % of control and 121 % of control; (dose: 100.0 mg/kg/injection, schedule: Q01DX009 (ip), vehicle: Klucel (hydroxypropylcellulose) (HPC)) 121 % of control.
